Measured values taken from patent US5990101A, “Carbapenem derivatives” (Meiji Seika Kabushiki Kaisha, priority 1995, dated 1999).

What was measured:
Acute toxicity = assay type: in vivo; conditions: three ICR male mice, 1500 mg/kg i.v.
[1] = tested on: renal dehydropeptidase-1 (DHP-1); conditions: background art; cited from earlier work
K. pneumoniae PC1602 = test: Antibacterial activity (MIC, two-fold method), K. pneumoniae PC1602; assay type: cell-based; parameters: unit not given here
E. coli 255 = test: Antibacterial activity (MIC, two-fold method), E. coli 255; assay type: cell-based; parameters: unit not given here
S. aureus 209P JC-1 = test: Antibacterial activity (MIC, two-fold method), S. aureus 209P JC-1; assay type: cell-based; parameters: unit not given here
E. cloacae GN747 = test: Antibacterial activity (MIC, two-fold method), E. cloacae GN747; assay type: cell-based; parameters: unit not given here
Ps. aeruginosa M-0148 = test: Antibacterial activity (MIC, two-fold method), Ps. aeruginosa M-0148; assay type: cell-based; parameters: unit not given here
P. vulgaris GN76 = test: Antibacterial activity (MIC, two-fold method), P. vulgaris GN76; assay type: cell-based; parameters: unit not given here
E. faecalis W-73 = test: Antibacterial activity (MIC, two-fold method), E. faecalis W-73; assay type: cell-based; parameters: unit not given here
Ps. aeruginosa E-2 = test: Antibacterial activity (MIC, two-fold method), Ps. aeruginosa E-2; assay type: cell-based; parameters: unit not given here
E. coli NIHJ JC-2 = test: Antibacterial activity (MIC, two-fold method), E. coli NIHJ JC-2; assay type: cell-based; parameters: unit not given here
S. marcescens GN10857 = test: Antibacterial activity (MIC, two-fold method), S. marcescens GN10857; assay type: cell-based; parameters: unit not given here
C. freudii GN346 = test: Antibacterial activity (MIC, two-fold method), C. freudii GN346; assay type: cell-based; parameters: unit not given here
S. aureus M126 = test: Antibacterial activity (MIC, two-fold method), S. aureus M126 (methicillin-resistant); assay type: cell-based; parameters: unit not given here
Excerpt: *: Methicillinresistant Staphylococcus aureus-

For `C[C@@H](O)[C@H]1C(=O)N2C(C(=O)[O-])=C(C[n+]3cc4scc(CNS(N)(=O)=O)n4c3)[C@H](C)[C@H]12` [Example 14, (1S,5R,6S)-6-[(1R)-1-hydroxyethyl]-2-[3-(aminosulfonyl)aminomethylimidazo[5,1-b]thiazolium-6-yl]methyl-1-methyl-1-carbapen-2-em-3-carboxylate], the “survival (acute toxicity)” value (Acute toxicity) was “All the animal survived”.
In the case of `C[C@@H](O)[C@H]1C(=O)N2C(C(=O)O)=C(SCCN=CN)C[C@H]12` [Imipenem], the “stability against renal dehydropeptidase-1 (DHP-1)” value [1] is listed as “instability”.
Compound `C[C@@H](O)[C@H]1C(=O)N2C(C(=O)[O-])=C(Cn3cc4sc(C(N)=O)c[n+]4c3)[C@H](C)[C@H]12` [Example 68, (1S,5R,6S)-6-[(1R)-1-hydroxyethyl]-2-(2-carbamoylimidazo[5,1-b]thiazolium-6-yl)methyl-1-methyl-1-carbapen-2-em-3-carboxylate] has an MIC (K. pneumoniae PC1602) of 0.20, an MIC (E. coli 255) of 0.20 and an MIC (S. aureus 209P JC-1) of less than 0.025. The MIC (E. cloacae GN747) was 0.20, the MIC (Ps. aeruginosa M-0148) was 3.13 and the MIC (P. vulgaris GN76) was 0.78. The MIC (E. faecalis W-73) was 6.25, the MIC (Ps. aeruginosa E-2) was 3.13 and the MIC (E. coli NIHJ JC-2) was 0.20. It also gave an MIC (S. marcescens GN10857) of 0.39, an MIC (C. freudii GN346) of 0.10 and an MIC (S. aureus M126) of 6.25.
